Experimental data: patent publication US4442124A, “Valproic acid ester with antiepileptic and anticonvulsant activity and pharmaceutical compositions therefrom” (priority 1979, dated 1984)

Key:
Solubility = format: physicochemical
[1] = Pharmacokinetics: plasma levels of valproic acid in Sprague-Dawley rats; format: in vivo; conditions: rat
Protocol: The test tubes are then removed from the ice and are stirred for a period of ten minutes. Centrifugation is carried out for the purpose of separating the phases and the organic phase in n-hexane is directly injected into the gas-chromatographic apparatus.
The study of plasma levels is carried out on Sprague-Dawley albino rats of an average body weight of 215 grams (200-230). Prior to the experiment, the rats fasted for a period of twelve hours. The acid is administered both orally and intravenously, but the ester alone is administered orally. The administrations are carried out with equimolar doses, that is in the dose of 1.39 millimole/kg which corresponds to a dose of 230 mg/kg in the case of the acid administered as the sodium salt and a dose of 360 mg/kg in the case of PEV. Both the acid as well as the ester are dissolved in ethyleneglycol:ethyl alcohol in the proportion of 65-35 (V/V). The concentration of the solution is calculated in a manner to administer 2 cc/kg. After the intervals of time shown in Table 2 in minutes or in hours, the rats in groups of six, are killed by decapitation, the blood is collected and centrifuged for the purpose of obtaining the plasma which is extracted and analyzed as previously described.
On the basis of the results, it is concluded that PEV is absorbed more rapidly, but even more significant, more uniformly compared with valproic acid. An index of the dispersion of the data has been calculated by determining the standard variation in percent with respect to the average value for each group under examination.

[2] = Acute toxicity in Wister rats (Lichtfield and Wilcoxon); conditions: in vivo, rat, mortality within 8 days, read-out: DL50 and range
Protocol: (§1) The acute toxicity of PEV has been investigated on Swiss albino mice of about 20 grams average weight and in Wister rats of 150±10 grams average weight by administration both through the oral route and by the endoperitoneal route.
(§2) All the animals fasted beginning 12 hours before the experiment. For the experiment, there are used 10 animals that is 5 males and 5 females for each dosage level of treatment. The values of […] are expressed in mg/kg and are calculated on the basis of the mortality which has been determined within 8 days after the administration in accordance with the method of Lichtfield and Wilcoxon.

[3] = Acute toxicity in Swiss albino mice (Lichtfield and Wilcoxon); conditions: in vivo, mouse, mortality within 8 days, read-out: DL50 and range
Protocol: as §1, §2

Wister rats = conditions: rat, oral, literature value; cited from earlier work

| SMILES | Solubility in alcohols, ethers, ketones (Solubility; alcohols, ethers, ketones) | Solubility in water (Solubility; water) | Absolute biodisponibility ([1]; in vivo) [%] | Average index of dispersion of plasma levels (standard variation in percent of average) ([1]; in vivo, po) | Difference in biodisponibility in favor of the ester ([1]; in vivo, po) [%] | Presence of PEV (intact ester) in the plasma ([1]; orally, 1.39 mmoles/kg) | LD50 at 192 h ([2]; ip, endoperitoneal) [mg/kg] | LD50 at 192 h ([2]; oral) [mg/kg] | LD50 at 192 h ([3]; ip, endoperitoneal) [mg/kg] | LD50 at 192 h ([3]; oral) [mg/kg] | bioavailability ([1]; in vivo, 1390 umol/kg, oral, from AUC versus i.v., read-out: Absolute biodisponibility) [%] | Average index of dispersion of plasma levels (standard variation in percent of average) ([1]; in vivo, iv) | DL50 (Merck Index, 9th Edition) (Wister rats) [mg/kg] |
| --- | --- | --- | --- | --- | --- | --- | --- | --- | --- | --- | --- | --- | --- |
| CCCC(CCC)C(=O)OCOC(=O)C(C)(C)C [PEV, pivaloyloxymethyl 2-propyl-pentanoate] | soluble in alcohols, ethers, ketones | insoluble in water | 72.4 | 15.2 | 45.5 | none of the rats treated with the ester have exhibited the presence of PEV in the plasma | 608 | 1440 | 510 | 1210 |  |  |  |
| CCCC(CCC)C(=O)[O-].[Na+] [sodium valproate, reference compound] |  |  |  |  |  |  |  |  |  |  | 49.9 |  |  |
| CCCC(CCC)C(=O)O [valproic acid, 2-propyl-pentanoic acid] |  |  |  | 60.5 |  |  |  |  |  |  |  | 18.3 | 670 |
